Test results reported in PubChem BioAssay AID588660 (The Scripps Research Institute Molecular Screening Center, 2011).
Active and inactive are the calls of the source.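 The calls were made as follows: active = KLF5 protein level shifted at least 30% from solvent-only control, either down or up; inactive = shift under 30% either way.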

Biological target: Krueppel-like factor 5 (Homo sapiens) (UniProt Q13887)
Experiment: change in KLF5 protein levels, late-stage follow-up, counter-screen for KLF5 inhibitor project, western blot, chemiluminescence, HT29 colorectal cells (AID 588660)
Conditions: 24 h, at 10 µM, hits give high values

Chain of Krueppel-like factor 5 (Homo sapiens) (Q13887 whole entry, looked up): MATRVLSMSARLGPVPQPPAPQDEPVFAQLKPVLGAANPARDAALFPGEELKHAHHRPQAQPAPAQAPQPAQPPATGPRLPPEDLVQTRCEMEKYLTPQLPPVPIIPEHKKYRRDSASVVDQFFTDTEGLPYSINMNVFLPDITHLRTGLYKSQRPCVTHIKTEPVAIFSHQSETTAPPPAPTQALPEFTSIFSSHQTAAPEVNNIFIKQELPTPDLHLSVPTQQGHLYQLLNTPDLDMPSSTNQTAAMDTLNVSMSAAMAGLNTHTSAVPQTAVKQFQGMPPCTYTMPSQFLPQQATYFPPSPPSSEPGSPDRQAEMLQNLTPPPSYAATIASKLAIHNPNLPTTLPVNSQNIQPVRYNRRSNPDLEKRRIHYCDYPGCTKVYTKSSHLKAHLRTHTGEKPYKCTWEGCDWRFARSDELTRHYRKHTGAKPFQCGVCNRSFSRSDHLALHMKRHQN

CN(C(=O)COC(=O)/C=C/c1cccc([N+](=O)[O-])c1)C1CCS(=O)(=O)C1 (stereo unspecified)
inhibition: 12.8% (inactive)
